Where two headings read alike, the source gives them in different places.
Columns and labels:
Assay type in all cases: in vivo
[1] = system: Surinam grass (Brachiaria decumbens); experiment: Test B pre/postemergence; conditions: Urochloa decumbens; for pest or weed control at 125 g/ha: 125 g ai/ha; for pest or weed control at 500 g/ha: 500 g ai/ha
Summary of the method: (§1)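 Following sowing, compounds in a surfactant-bearing non-phytotoxic solvent were applied preemergence; emerged plants 2 to 18 cm high got postemergence treatment concurrently. Evaluation: 13 to 15 days later, greenhouse, 0–100 visual scale.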

[2] = system: barnyardgrass (Echinochloa crus-galli); experiment: Test B pre/postemergence; conditions: for pest or weed control at 500 g/ha: 500 g ai/ha
Summary of the method: as §1

[3] = system: cocklebur (Xanthium strumarium); experiment: Test B pre/postemergence; conditions: Xanthium strumarium; for pest or weed control at 125 g/ha: 125 g ai/ha; for pest or weed control at 500 g/ha: 500 g ai/ha
Summary of the method: as §1

corn (Zea mays) = experiment: Test B pre/postemergence
Summary of the method: as §1

[4] = system: crabgrass (Digitaria sanguinalis); experiment: Test B pre/postemergence; conditions: for pest or weed control at 500 g/ha: 500 g ai/ha
Summary of the method: as §1

[5] = system: giant foxtail (Setaria faberii); experiment: Test B pre/postemergence; conditions: for pest or weed control at 500 g/ha: Setaria faberi, 500 g ai/ha
Summary of the method: as §1

[6] = system: lambsquarters (Chenopodium album); experiment: Test B pre/postemergence; conditions: Chenopodium album; for pest or weed control at 125 g/ha: 125 g ai/ha; for pest or weed control at 500 g/ha: 500 g ai/ha
Summary of the method: as §1

[7] = system: morningglory (Ipomoea coccinea); experiment: Test B pre/postemergence; conditions: for pest or weed control at 500 g/ha: 500 g ai/ha
Summary of the method: as §1

[8] = system: pigweed (Amaranthus retroflexus); experiment: Test B pre/postemergence; conditions: Amaranthus retroflexus; for pest or weed control at 125 g/ha: 125 g ai/ha; for pest or weed control at 500 g/ha: 500 g ai/ha
Summary of the method: as §1

[9] = system: velvetleaf (Abutilon theophrasti); experiment: Test B pre/postemergence; conditions: Abutilon theophrasti; for pest or weed control at 125 g/ha: 125 g ai/ha; for pest or weed control at 500 g/ha: 500 g ai/ha
Summary of the method: as §1

[10] = system: wheat (Triticum aestivum); experiment: Test B pre/postemergence; conditions: for plant injury at 500 g/ha: 500 g ai/ha
Summary of the method: as §1

[11] = system: blackgrass (Alopecurus myosuroides); experiment: Test B postemergence
Summary of the method: as §1

wild oat (Avena fatua) = experiment: Test B postemergence
Summary of the method: as §1

[12] = system: barnyardgrass (Echinochloa crus-galli); experiment: Test B flooded paddy test; conditions: Echinochloa crus-galli, Flood, 1000 g ai/ha; scale 0 (no effect) to 100 (complete control); read-out: Plant response rating, Barnyardgrass
Summary of the method: (§2)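 Plants were grown to the 2-leaf stage before treatment, then kept in a greenhouse for 13 to 15 days. Injury was rated visually against untreated controls on a 0 to 100 scale, where 0 is no effect and 100 is complete control.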

[13] = system: duck salad (Heteranthera limosa); experiment: Test B flooded paddy test; conditions: Heteranthera limosa, Flood, 1000 g ai/ha; scale 0 to 100; read-out: Plant response rating, Ducksalad
Summary of the method: as §2

rice (Oryza sativa) = experiment: Test B flooded paddy test; conditions: Oryza sativa, Flood, 1000 g ai/ha; scale 0 to 100; read-out: Plant response rating, Rice
Summary of the method: as §2

[14] = system: umbrella sedge (Cyperus difformis); experiment: Test B flooded paddy test; conditions: Cyperus difformis, Flood, 1000 g ai/ha; scale 0 to 100; read-out: Plant response rating, Sedge, Umbrella
Summary of the method: as §2

[15] = Preemergence, 125 g ai/ha, scale 0 to 100 (0 no effect, 100 complete control)
[16] = Postemergence, 125 g ai/ha, scale 0 to 100 (0 no effect, 100 complete control)
[17] = 125 g ai/ha, scale 0 to 100 (0 no effect, 100 complete control)

Nc1nc(C2CC2)nc(C(=O)O)c1Br [Compound 8]
pest or weed control at 125 g/ha ([1]; post-emergence, Postemergence, scale 0 to 100 (0 no effect, 100 complete control), read-out: Surinam Grass plant response rating): 80% | pest or weed control at 500 g/ha ([1]; post-emergence, Postemergence, scale 0 to 100, read-out: Plant response rating, Surinam Grass): 90% | pest or weed control at 125 g/ha ([1]; pre-emergence, Preemergence, scale 0 to 100 (0 no effect, 100 complete control), read-out: Plant response rating, Surinam Grass): 60% | pest or weed control at 500 g/ha ([1]; pre-emergence, Preemergence, scale 0 to 100 (0 no effect, 100 complete control), read-out: Surinam Grass plant response rating): 90% | pest or weed control at 125 g/ha ([2]; Echinochloa crus-galli, post-emergence, Postemergence, 125 g ai/ha, scale 0 to 100 (0 no effect, 100 complete control), read-out: Barnyardgrass plant response rating): 90% | pest or weed control at 500 g/ha ([2]; Echinochloa crus-galli, post-emergence, Postemergence, scale 0 to 100, read-out: Plant response rating, Barnyardgrass): 90% | pest or weed control at 500 g/ha ([2]; Echinochloa crus-galli, pre-emergence, Preemergence, scale 0 to 100 (0 no effect, 100 complete control), read-out: Barnyardgrass plant response rating): 90% | Plant response rating, Barnyardgrass [2, 15]: 70 | pest or weed control at 125 g/ha ([3]; post-emergence, Postemergence, scale 0 to 100 (0 no effect, 100 complete control), read-out: Cocklebur plant response rating): 100% | pest or weed control at 500 g/ha ([3]; post-emergence, Postemergence, scale 0 to 100, read-out: Plant response rating, Cocklebur): 100% | pest or weed control at 125 g/ha ([3]; pre-emergence, Preemergence, scale 0 to 100 (0 no effect, 100 complete control), read-out: Plant response rating, Cocklebur): 90% | pest or weed control at 500 g/ha ([3]; pre-emergence, Preemergence, scale 0 to 100 (0 no effect, 100 complete control), read-out: Cocklebur plant response rating): 100% | Corn plant response rating (corn (Zea mays); [16]): 70 | Plant response rating, Corn (corn (Zea mays); [15]): 90 | Corn plant response rating (crop injury, 0 = no effect, 100 = complete kill) at 500 g/ha (corn (Zea mays); Zea mays, post-emergence, Postemergence, 500 g ai/ha, scale 0 to 100): 90% | plant injury at 500 g/ha (corn (Zea mays); Zea mays, pre-emergence, Preemergence, 500 g ai/ha, scale 0 to 100 (0 no effect, 100 complete control), read-out: Corn plant response rating): 90% | pest or weed control at 500 g/ha ([4]; Digitaria sanguinalis, post-emergence, Postemergence, scale 0 to 100, read-out: Plant response rating, Crabgrass): 90% | pest or weed control at 125 g/ha ([4]; Digitaria sanguinalis, pre-emergence, Preemergence, 125 g ai/ha, scale 0 to 100 (0 no effect, 100 complete control), read-out: Plant response rating, Crabgrass): 80% | pest or weed control at 500 g/ha ([4]; Digitaria sanguinalis, pre-emergence, Preemergence, scale 0 to 100 (0 no effect, 100 complete control), read-out: Crabgrass plant response rating): 90% | Crabgrass plant response rating [4, 16]: 80 | Foxtail, Giant plant response rating [5, 16]: 80 | Plant response rating, Foxtail, Giant [5, 15]: 50 | pest or weed control at 500 g/ha ([5]; post-emergence, Postemergence, scale 0 to 100, read-out: Plant response rating, Foxtail, Giant): 90% | pest or weed control at 500 g/ha ([5]; pre-emergence, Preemergence, scale 0 to 100 (0 no effect, 100 complete control), read-out: Foxtail, Giant plant response rating): 90% | pest or weed control at 125 g/ha ([6]; post-emergence, Postemergence, scale 0 to 100 (0 no effect, 100 complete control), read-out: Lambsquarters plant response rating): 100% | pest or weed control at 500 g/ha ([6]; post-emergence, Postemergence, scale 0 to 100, read-out: Plant response rating, Lambsquarters): 100% | pest or weed control at 125 g/ha ([6]; pre-emergence, Preemergence, scale 0 to 100 (0 no effect, 100 complete control), read-out: Plant response rating, Lambsquarters): 90% | pest or weed control at 500 g/ha ([6]; pre-emergence, Preemergence, scale 0 to 100 (0 no effect, 100 complete control), read-out: Lambsquarters plant response rating): 100% | pest or weed control at 125 g/ha ([7]; Ipomoea, post-emergence, Postemergence, 125 g ai/ha, scale 0 to 100 (0 no effect, 100 complete control), read-out: Morningglory plant response rating): 100% | pest or weed control at 500 g/ha ([7]; Ipomoea, post-emergence, Postemergence, scale 0 to 100, read-out: Plant response rating, Morningglory): 100% | pest or weed control at 500 g/ha ([7]; Ipomoea, pre-emergence, Preemergence, scale 0 to 100 (0 no effect, 100 complete control), read-out: Morningglory plant response rating): 100% | Plant response rating, Morningglory [7, 15]: 100 | pest or weed control at 125 g/ha ([8]; post-emergence, Postemergence, scale 0 to 100 (0 no effect, 100 complete control), read-out: Pigweed plant response rating): 100% | pest or weed control at 500 g/ha ([8]; post-emergence, Postemergence, scale 0 to 100, read-out: Plant response rating, Pigweed): 100% | pest or weed control at 125 g/ha ([8]; pre-emergence, Preemergence, scale 0 to 100 (0 no effect, 100 complete control), read-out: Plant response rating, Pigweed): 100% | pest or weed control at 500 g/ha ([8]; pre-emergence, Preemergence, scale 0 to 100 (0 no effect, 100 complete control), read-out: Pigweed plant response rating): 100% | pest or weed control at 125 g/ha ([9]; post-emergence, Postemergence, scale 0 to 100 (0 no effect, 100 complete control), read-out: Velvetleaf plant response rating): 80% | pest or weed control at 500 g/ha ([9]; post-emergence, Postemergence, scale 0 to 100, read-out: Plant response rating, Velvetleaf): 100% | pest or weed control at 125 g/ha ([9]; pre-emergence, Preemergence, scale 0 to 100 (0 no effect, 100 complete control), read-out: Plant response rating, Velvetleaf): 80% | pest or weed control at 500 g/ha ([9]; pre-emergence, Preemergence, scale 0 to 100 (0 no effect, 100 complete control), read-out: Velvetleaf plant response rating): 100% | Wheat plant response rating [10, 16]: 0 | plant injury at 500 g/ha ([10]; Triticum aestivum, post-emergence, Postemergence, scale 0 to 100, read-out: Plant response rating, Wheat): 0% | plant injury at 125 g/ha ([10]; Triticum aestivum, pre-emergence, Preemergence, 125 g ai/ha, scale 0 to 100 (0 no effect, 100 complete control), read-out: Plant response rating, Wheat): 60% | plant injury at 500 g/ha ([10]; Triticum aestivum, pre-emergence, Preemergence, scale 0 to 100 (0 no effect, 100 complete control), read-out: Wheat plant response rating): 80% | Blackgrass plant response rating [11, 17]: 0 | pest or weed control at 500 g/ha ([11]; Alopecurus myosuroides, post-emergence, 500 g ai/ha, scale 0 to 100, read-out: Plant response rating, Blackgrass): 0% | Oat, Wild plant response rating (wild oat (Avena fatua); [17]): 0 | pest or weed control at 500 g/ha (wild oat (Avena fatua); Avena fatua, post-emergence, 500 g ai/ha, scale 0 to 100, read-out: Plant response rating, Oat, Wild): 0% | pest or weed control at 1000 g/ha [12]: 70% | pest or weed control at 1000 g/ha [13]: 90% | plant injury at 1000 g/ha (rice (Oryza sativa)): 60% | pest or weed control at 1000 g/ha [14]: 40%
